{"source": "patent US9555086B2", "about": "“Compositions and methods for inducing an immune response” (The Regents of the University of Michigan, priority 2010, dated 2017)", "key": {"[1]": {"test_system": "antioxidative signaling pathway", "settings": "read-out: IC50 as activator of antioxidative signaling pathway; cited from earlier work"}, "[2]": {"test_system": "trypsin and chymotrypsin", "assay": "Trypsin/chymotrypsin stability assay"}, "[3]": {"test_system": "trypsin and chymotrypsin", "settings": "pH 8"}, "[4]": {"test_system": "Th17 cells", "assay": "ISL polarizing effect in vivo (CII in CFA immunization)", "parameters": "species or system DBA/1 mice", "settings": "10 μg co-administered with CII in CFA, footpad; day 7", "description": "(A) DBA/1 mice were immunized with CII in CFA in the presence of PBS, 65-79*0401 or 65-79*0402. On day 7, cells from draining lymph nodes were isolated, cultured for 6 hours with PMA, Ionomycin and Brefeldin A and then stained with anti-mouse CD4, IL17A and IFN-γ as above. On the left: Representative dot plots showing percentages of IL17A+ and IFN-γ+ cells obtained from gated CD4+ cells. On the right, bar graphs showing results as mean±SD of duplicate experiments. (B) DBA/1 and CII-TCR Tg mice were immunized as in (A). On day 7, splenic cells were isolated and cultured with the synthetic peptide CII260-267 (5 μg/ml). Supernatants were collected every 24 hours and assayed for IL-17 levels by ELISA.\nMice were injected subcutaneously in the footpad with 100 μg of chicken collagen type II (CII) (Chondrex, Inc, Redmond, Wash.) emulsified in CFA (4 mg/ml). The inoculums contained 10 μg of either ISL-positive 65-79*0401 or ISL-negative 65-79*0402 ligands in PBS, or an equal volume of PBS alone. Animals were sacrificed 7 days after immunization. For Th17 quantification studies, inguinal and popliteal lymph nodes were collected and single cell suspensions were prepared. Unfractionated lymph node cells were cultured with PMA, Ionomycin and Brefeldin A for 6 hours as above. Cells were stained with FITC anti-mouse CD4 or isotype controls, followed by fixation and permeabilization using a Cytofix-Cytoperm™ kit. After permeabilization, intracellular staining was performed using PE-conjugated anti-mouse IL17A and APC-conjugated anti-mouse IFN-γ and cells were analyzed by flow cytometry as above. To measure IL-17 production, splenocytes from mice immunized as above were stimulated in vitro with 5 μg of CII259-273 peptide. At different time points thereafter, supernatants were collected and assayed for IL-17 by ELISA as above."}, "[5]": {"test_system": "CD8+ and CD8− DC", "assay": "Cytokine production by splenic DC subsets (Luminex)", "assay_type": "cell-based, mouse", "settings": "CD11c+CD8− DCs; 50 μg/ml peptide", "description": "Splenic CD8+ and CD8− DC were isolated from DBA/1 mice as above and cultured in 96-well plates over time in the presence or absence of ISL-positive (65-79*0401) or ISL-negative (65-79*0402) peptides (50 μg/ml). At various time points thereafter, supernatants were collected and assayed for cytokine content, using the Luminex platform.\nDBA/1 splenic unfractionated CD11c+ DCs (CD11c+), or their purified CD11c+CD8+ DCs (CD8+) or CD11c+CD8− DCs (CD8−) subsets were cultured with the ISL 65-79*0401 or ISL-negative control 65-79*0402 or medium. Supernatants were collected at different time points and assayed for cytokine content using a Luminex platform.\nTo determine the rate of NO production, cells were loaded with 20 μM of the fluorescent NO probe 4,5-diaminofluorescein diacetate (DAF-2DA) and the fluorescence level was recorded every 5 minutes over a period of 500 minutes using a Fusion αHT system (PerkinElmer Life Sciences) at an excitation wavelength of 488 nm and emission wavelength of 515 nm. To determine IDO enzymatic activity, the generation of its product, kynurenine was measured (Takikawa et al. 1988. J Biol Chem 263:2041-2048.; herein incorporated by reference in its entirety). Cytokine concentrations were measured in cell culture supernatants using a Luminex platform (Millipore Corporation, Danvers, Mass.). In some experiments, cytokines were determined using ELISA (Quantikine®, R&D Systems, Minneapolis, Minn.) following the manufacture's instruction."}, "[6]": {"test_system": "Human fibroblast M1 cells", "assay": "Nitric Oxide Assay in human fibroblast M1 cells", "assay_type": "cell-based", "description": "FIGS. 17A and 17B show dose-response experiments of NO production rate induced by cyclic analogs. Human M1 fibroblasts were incubated with different concentrations of the listed cyclic peptides, or with 50 μM of positive (65-79*0401) or negative (65−79*0402) control peptides. NO production rates were determined using the fluorescent probe 4,5-diaminofluorescein diacetate (DAF-2DA) (See Ling et al., Arthritis Res Ther 2007, 9, R5; Ling et al., J. J Immunol 2007, 179, 6359; Ling et al., Arthritis Rheum 2006, 54, 3423).\nNitric Oxide Assay. Human fibroblast M1 cells were plated at a density of 1×10^5 cells per well in 96-well plates the day prior to the Nitric Oxide assay. To determine the rate of NO production in fibroblast, cells were first loaded with 20 μM of the fluorescent NO probe 4,5-diaminofluorescein diacetate (DAF-2DA), incubated in the dark at 37° C. for 1 hour and washed in 100 μL of DMEM/phenol red-free medium. The fluorescence level was recorded every 5 minutes over a period of 500 minutes, using a Fusion αHT system (PerkinElmer Life Sciences) at an excitation wavelength of 488 nm and emission wavelength of 515 nm. The NO production rate is expressed as the mean±SEM fluorescence units per minute."}}, "note": "Entries after “also recorded” stand apart in the source; their conditions may differ. Numbered stars: 1 amine (or outer) side, 2 acyl side, 3 side chain; on linkers, the order of the positions; unused ones are H or OH. Bridge positions count the residues as written; N and C are the ends. Square brackets hold non-standard residues; d marks the D form. Ends that are not written are not given here. Peptide text beside a SMILES is read from it. CO = O=C([*:1])[*:2]; Nlys = NCCCCNCC(=O)O"}
{"compound": "C=C(C)CCOP(=O)(O)OP(=O)(O)O", "note": "[IPP, Isopentenyl diphosphate]", "values": [{"measurement": "IC50", "setting": "[1]", "value": 17, "unit": "pM"}]}
{"compound": "C[C@H](NC(=O)CN1CCCCNC(=O)NCCCCN(C(=O)[C@@H](N)Cc2c[nH]c3ccccc23)CC(=O)N[C@@H](CCC(N)=O)C(=O)N[C@@H](CCCCN)C(=O)N[C@@H](CCCNC(=N)N)C1=O)C(N)=O", "note": "[c(HS4-4)] (H-W[Nlys]QKR[Nlys]A-NH2; linker 2-6 via CO)", "values": [{"measurement": "stability towards trypsin/chymotrypsin degradation (HPLC)", "setting": "[2]; 4 hours of incubation, 37° C., pH 8", "value": "completely stable"}, {"measurement": "cleavage fragments in MS analysis", "setting": "[2]; after trypsin/chymotrypsin incubation", "value": "no fragments were observed"}]}
{"compound": "H-KDLLEQRRAAVDTYC-NH2 [65-79*0404]", "values": [{"measurement": "degradation by trypsin/chymotrypsin (HPLC)", "setting": "[3]", "value": "degraded completely"}]}
{"compound": "H-Lys-Asp-Ile-Leu-Glu-Asp-Glu-Arg-Ala-Ala-Val-Asp-Thr-Tyr-Cys-NH2 (H-KDILEDERAAVDTYC-NH2) [65-79*0402, reference compound]", "values": [{"measurement": "Th17 abundance in draining lymph nodes", "setting": "[4]", "value": "no effect"}, {"measurement": "IL-6 production", "setting": "[5]", "value": "did not trigger any increased production; also recorded: did not trigger any cytokine production"}]}
{"compound": "c(HS6-2): cyclic analog named only in b214; probably a misprint of c(HS2-4) (QRRAA; bridge (positions not given here) via CO; also: urea backbone cyclisation, places not given here)", "values": [{"measurement": "potency in activating NO production (in words)", "setting": "[6]", "value": "potent analogs"}]}
